# Results from patent US6013628A, “Method for treating conditions of the eye using polypeptides” (Regents of the University of Minnesota, priority 1995, dated 2000).
# No end group written: not given here.
# Legend:
# [1] = tested on: rabbit eye; test: Intravitreal polypeptide toxicity in rabbit eye (ERG, clinical observations, histology); type: in vivo
# Procedure: The toxicity of the polypeptides was determined by three techniques:
# ERG. Electroretinograms (ERG) were carried out as a functional indicator of toxicity of a polypeptide treatment. Polypeptides were injected at 200 ug and 400 ug (twice the dose that inhibited proliferative vitreoretinopathy), and ERG measurements were performed three times in each eye at various times post-injection (1 hr to 6 weeks).
# Clinical observations. Observation by indirect ophthalmoscopy and slit lamp examination were performed to probe for evidence of toxicity.
# Histology. Following ERG and clinical observations, the eyes were immediately enucleated, fixed in 10% formalin, paraffin embedded, sectioned at 7 microns, and stained with hematoxylin and eosin.
# [2] = 3H-heparin; cited from earlier work
# [3] = tested on: proliferative vitreoretinopathy in rabbits; test: Rabbit model of experimental proliferative vitreoretinopathy (intravitreal fibroblast injection); type: in vivo
# Procedure: The rabbit model for proliferative vitreoretinopathy is described in Thresher et al., Graefe's Arch. Clin. Exp. Ophthalmol., 221, 192-198 (1984). Adult Dutch Belted rabbits of both sexes were used in the study. All animals were treated according to ARVO Animal Use Guidelines. All eyes were examined prior to initiation of a study and only clinically normal animals were used.
# The rabbits were anesthetized using an intramuscular injection of a mix of ketamine (30 mg/kg) and xylazine (5 mg/kg). Pupils were dilated with Mydriacyl (Tropicamide) 1% and Neosynephrine 2.5% topical drops. Topical conjunctival anesthesia was provided with Proparacaine […] drops. All procedures were performed in an approved animal surgical facility. […] This site was used for subsequent intraocular injections, preventing iatrogenic retinal tears at the injection site. An intravitreal injection of 0.4 cc millipore-filtered 100% perfluoropropane gas was administered to produce a gas compression vitrectomy. Once the expansile gas bubble had absorbed, 5-10×10^4 dermal rabbit fibroblasts with or without 200 μg of polypeptide (injection volume-0.1 cc) were injected through a 27 gauge needle into the vitreous cavity. Under indirect ophthalmoscopic visualization, the tip of the needle was placed over the optic nerve head and the cells were injected in this location.
# The animals were then observed for the development of proliferative vitreoretinopathy. The final stage of retinal detachment was scored from 0 to 7 using the standard grading scale shown below (see Hida et al., Graefe's Arch. Clin. Exp. Ophthalmol., 225, 1763-1769 (1991)).
# Retinal photographs were taken with a wide field fundus camera (Canon) to document the final stage of retinal detachment. Animals were sacrificed while under deep anesthesia with an intravenous injection of 1 cc of euthanasia solution. The eyes were then immediately enucleated, fixed in 10% formalin, paraffin embedded, sectioned at 7 microns, and stained with hematoxylin and eosin for histology.
# Three weeks following peripheral retinal cryopexy and gas compression vitrectomy, rabbit fibroblasts incubated for 1 hr with 200 ug of laminin polypeptide R37, type IV collagen polypeptide Hep-II, or BSS (balanced saline solution; control) were injected intravitreally. One eye of each rabbit received polypeptide incubated fibroblasts and the other eye received the control cells. Eyes were examined every three days, and the degree of retinal detachment was graded on the standard scale described above.
# [4] = tested on: rabbit dermal fibroblasts; test: Fibroblast-mediated collagen gel contraction (shrinkage) assay; type: cell-based
# Source text: As indicated above, proliferative vitreoretinopathy is the result of the proliferation and migration of fibroblasts, retinal pigment epithelial cells, and glial cells, and their organization into vitreous strands and epiretinal membranes. The vitreous strands and epiretinal membranes can contract, resulting in traction retinal detachment. The ability of rabbit dermal fibroblasts to cause contraction was examined in the collagen gel shrinkage model, which serves as an in vitro model of proliferative vitreoretinopathy (see Verdoon et al., Arch. Ophthalmol., 104, 1216-1219 (1986)). The ability of synthetic polypeptides derived from ECM molecules to inhibit contraction in the collagen gel shrinkage model using rabbit fibroblasts was also examined.
# Fifty thousand rabbit dermal fibroblasts were suspended in 250 μl of fibroblast assay medium and mixed with 250 μl of Vitrogen and dispensed into the wells of a 48-well plate. The cells were preincubated with the desired polypeptide concentration (25, 50, 100, or 200 ug/ml) for one hour at 37° C. before mixing with the Vitrogen. Gelling occurred within 20 minutes after transfer of the mix of cell suspension and Vitrogen into an incubator at 37° C. with 5% CO2. The gels were overlaid with 250 μl of growth medium. All conditions were tested in duplicate wells. After 24 hours, the gels were detached from the sides of the wells by sweeping with a 27-gauge needle inserted at the interface between the plastic well and the gel (FIGS. 6-8).
# Contraction of collagen gels was quantitated by use of planimetry. The gels were observed daily over the seven day period following detachment for evidence of contraction. The plates were photographed at the end of the seven days to record the amount of contraction. The contraction was measured by recording the area of each gel in each well off the photograph using a computer scanner. The area of the gels with polypeptide was compared to the area of the gels without the polypeptide. Planimetry is a two-dimensional measurement. […] The planimetry measurements accordingly underestimate the degree of contraction that actually occurred.
# The collagen gels were cast with or without the incorporation of 25 ug/ml of fibronectin. […] These controls using deactivated cells indicate that cell growth and proliferation are required to effect gel shrinkage.
sequence,measurement,setting,value
"LAGSCLARFSTM [Hep-II, Leu-Ala-Gly-Ser-Cys-Leu-Ala-Arg-Phe-Ser-Thr-Met]",Fundus appearance,[1]; 6 weeks after injection of 200 ug in 0.1 ml,indistinguishable from the control eye
same,"Toxic effects by clinical observations, histopathology or ERG",[1]; intravitreal injection of 200 ug or 400 ug,No toxic effects
same,Heparin binding,[2],reported to bind heparin
same,"Retina appearance (stage 0-7 scale), fundus photograph","[3]; 200 ug with 100,000 fibroblasts, seven weeks after fibroblast injection",normal (Stage 0)
same,# Detached Retinas (%),"[3]; Expt I: 200 ug, 50,000 cells, RD staged at day 21, control 66%",17%
same,# Detached Retinas,"[3]; Expt I: 200 ug, 50,000 cells, RD staged at day 21, total 6 eyes, control 4 of 6",1
same,Degree of retinal detachment,"[3]; fibroblasts incubated 1 hr with 200 ug polypeptide, intravitreal",inhibited the degree of retinal detachment
same,% Contraction,"[4]; 200 ug type IV collagen peptide, cells preincubated 1 hr, gel surface area by planimetry at day 7, no peptide 36%",3%
same,Effect on fibroblast-mediated collagen gel contraction,[4]; gels cast with and without fibronectin,most potent inhibitory effects on contraction
